Calls of active or inactive are those of the source. The rule behind the calls is not given here.
Experiments:
CYP1B1 [1] = biological target: T1, CYP1B1 (Homo sapiens, UniProt Q16678); assay: Inhibition of human recombinant CYP1B1 using 7-ethoxyresorufin as substrate at 0.01 uM preincubated with enzyme for 5 mins followed by fluorescent substrate and NADPH addition and measured after 35 mins by EROD assay; assay type: ADME; details: recombinant CYP1B1, probe 7-ethoxyresorufin, time 40 min
T1 sequence (Q16678 whole entry): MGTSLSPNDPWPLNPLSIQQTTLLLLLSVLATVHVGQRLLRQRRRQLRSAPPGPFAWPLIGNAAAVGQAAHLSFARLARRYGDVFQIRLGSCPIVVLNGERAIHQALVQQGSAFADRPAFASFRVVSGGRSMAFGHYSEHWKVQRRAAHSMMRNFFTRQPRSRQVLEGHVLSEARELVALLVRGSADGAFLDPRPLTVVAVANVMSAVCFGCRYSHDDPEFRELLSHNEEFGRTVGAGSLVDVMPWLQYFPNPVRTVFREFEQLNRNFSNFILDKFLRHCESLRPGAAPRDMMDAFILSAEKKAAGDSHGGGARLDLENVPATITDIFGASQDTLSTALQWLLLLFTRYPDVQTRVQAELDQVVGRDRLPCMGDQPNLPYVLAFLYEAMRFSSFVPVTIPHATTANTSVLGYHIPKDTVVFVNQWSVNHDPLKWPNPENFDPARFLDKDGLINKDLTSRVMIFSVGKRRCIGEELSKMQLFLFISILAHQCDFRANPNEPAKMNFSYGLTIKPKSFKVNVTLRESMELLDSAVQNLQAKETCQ

CYP1B1 [2] = biological target: T1, CYP1B1; assay: Inhibition of human recombinant CYP1B1 using 7-ethoxyresorufin as substrate at 1 uM preincubated with enzyme for 5 mins followed by fluorescent substrate and NADPH addition and measured after 35 mins by EROD assay; assay type: ADME; details: recombinant CYP1B1, probe 7-ethoxyresorufin, time 40 min
Cytochrome P450 1B1 = biological target: T2, Cytochrome P450 1B1 (Homo sapiens, UniProt Q16678); assay: Inhibition of human recombinant CYP1B1 using 7-ethoxyresorufin as substrate preincubated with enzyme for 5 mins followed by fluorescent substrate and NADPH addition and measured after 35 mins by EROD assay; assay type: ADME
T2 sequence (Q16678 whole entry): T1 sequence (Q16678 whole entry)

Cytochrome P450 1A1 = biological target: T3, Cytochrome P450 1A1 (Homo sapiens, UniProt P04798); assay: Inhibition of human recombinant CYP1A1 using 7-ethoxyresorufin as substrate preincubated with enzyme for 5 mins followed by fluorescent substrate and NADPH addition and measured after 15 mins by EROD assay; assay type: ADME
T3 sequence (P04798 whole entry): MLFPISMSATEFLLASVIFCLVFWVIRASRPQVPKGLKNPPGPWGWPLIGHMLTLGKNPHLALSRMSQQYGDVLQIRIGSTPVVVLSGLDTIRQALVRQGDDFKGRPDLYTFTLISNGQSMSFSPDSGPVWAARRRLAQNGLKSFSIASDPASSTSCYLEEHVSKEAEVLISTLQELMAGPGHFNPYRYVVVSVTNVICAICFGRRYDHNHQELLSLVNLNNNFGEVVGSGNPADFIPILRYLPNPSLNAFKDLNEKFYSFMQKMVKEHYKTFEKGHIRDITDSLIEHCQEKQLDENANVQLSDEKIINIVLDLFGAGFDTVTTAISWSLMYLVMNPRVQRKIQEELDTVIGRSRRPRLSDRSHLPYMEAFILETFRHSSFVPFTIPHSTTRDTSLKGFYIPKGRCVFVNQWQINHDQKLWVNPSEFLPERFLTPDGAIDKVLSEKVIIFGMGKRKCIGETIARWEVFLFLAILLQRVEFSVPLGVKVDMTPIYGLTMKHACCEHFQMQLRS

Cytochrome P450 1A2 = biological target: T4, Cytochrome P450 1A2 (Homo sapiens, UniProt P05177); assay: Inhibition of human recombinant CYP1A2 using 7-ethoxyresorufin as substrate preincubated with enzyme for 5 mins followed by fluorescent substrate and NADPH addition and measured after 50 mins by EROD assay; assay type: ADME
T4 sequence (P05177 whole entry): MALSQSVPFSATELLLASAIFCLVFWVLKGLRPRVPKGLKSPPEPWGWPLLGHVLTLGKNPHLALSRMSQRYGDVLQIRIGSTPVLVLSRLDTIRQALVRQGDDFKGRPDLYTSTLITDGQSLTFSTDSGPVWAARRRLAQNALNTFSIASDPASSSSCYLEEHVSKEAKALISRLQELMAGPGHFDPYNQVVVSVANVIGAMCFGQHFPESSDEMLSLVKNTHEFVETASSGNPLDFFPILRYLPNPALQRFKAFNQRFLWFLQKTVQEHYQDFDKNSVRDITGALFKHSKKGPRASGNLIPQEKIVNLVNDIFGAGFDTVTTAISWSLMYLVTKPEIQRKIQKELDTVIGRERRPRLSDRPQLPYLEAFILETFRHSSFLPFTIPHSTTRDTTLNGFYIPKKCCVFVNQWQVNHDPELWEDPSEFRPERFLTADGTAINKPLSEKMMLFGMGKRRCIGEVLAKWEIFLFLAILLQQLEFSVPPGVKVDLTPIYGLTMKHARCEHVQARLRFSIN

CYP1A1 versus CYP1B1 = assay: (§1) Selectivity ratio of IC50 for Inhibition of human recombinant CYP1A1 to IC50 for Inhibition of human recombinant CYP1B1; assay type: ADME; details: recombinant CYP1A1 and recombinant CYP1B1, read-out: Ratio IC50
CYP1A2 versus CYP1B1 = assay: Selectivity ratio of IC50 for Inhibition of human recombinant CYP1A2 to IC50 for Inhibition of human recombinant CYP1B1; assay type: ADME; details: recombinant CYP1A2 and recombinant CYP1B1, read-out: Ratio IC50
[3] = n-Octanol/water partition coefficient, logP of the compound by HPLC analysis; assay type: physicochemical
[4] = as §1; assay type: ADME; details: recombinant enzyme
A549 [5] = assay: Induction of apoptosis in DMBA-stimulated PTX resistant human A549 cells assessed as apoptosis rate at 5 uM incubated for 24 hrs by flow cytometry (reference value: 6.67 +/- 1.03%); assay type: functional
A549 [6] = assay: Inhibition of tumor metastasis in DMBA-stimulated PTX resistant human A549 cells assessed as inhibition of cell migration by measuring decrease in crawling ability of cells at 2.5 to 10 uM incubated for 48 hrs by wound healing assay; assay type: functional, cell-based; details: dose 2.5-10 µM

Compound	inhibition at 35 min, 0.01 µM (CYP1B1 [1])	inhibition at 35 min, 1 µM (CYP1B1 [2])	also measured
Ic1ccc(-c2nc(N3CCCCC3)c3ccccc3n2)cc1	13.8%	91.1%	
Nc1nc(-c2cccc(C(=O)O)c2)nc2ccccc12	22.4%	10.2%	
CCCCNc1nc(-c2ccc(I)cc2)nc2ccccc12	21.8%	86.4%	
Nc1nc(-c2cccc(Br)c2)nc2c1ccc1ccccc12	-12.8%	93.8%	
Nc1nc(-c2ccc(F)cc2)nc2ccccc12	3.73%	80.7%	
Nc1nc(-c2ccc(Br)cc2)nc2ccccc12	82.7%	96.4%	IC50 (Cytochrome P450 1B1): 0.49 nM; IC50 (Cytochrome P450 1A1): 104 nM; IC50 (Cytochrome P450 1A2): 1990 nM; selectivity ratio (CYP1A1 versus CYP1B1): 211; selectivity ratio (CYP1A2 versus CYP1B1): 4060; logP ([3]; n-octanol/water, read-out: logP): 2.12
Cl.Nc1nc(-c2ccc(I)cc2)nc2ccccc12	94.5%	96.7%	IC50 (Cytochrome P450 1B1): 0.02 nM; IC50 (Cytochrome P450 1A1): 12.3 nM; IC50 (Cytochrome P450 1A2): 2030 nM; Ratio IC50 [4]: 617.5; selectivity ratio (CYP1A2 versus CYP1B1): 101000; logP ([3]; octanol/water): 2.71; Activity (A549 [5]): 18.53%
Nc1nc(-c2ccc(Cl)cc2)nc2ccccc12	68.4%	96%	
Ic1ccc(-c2nc(NCc3ccccc3)c3ccccc3n2)cc1	2%	91.2%	
CC(C)Nc1nc(-c2ccc(I)cc2)nc2ccccc12	32.8%	95.3%	
Nc1nc(-c2ccc(I)cc2)nc2c1ccc1ccccc12	63.1%	88.5%	
COc1ccc(-c2nc(N)c3ccc4ccccc4c3n2)cc1	44.2%	95.2%	
Nc1nc(-c2cccc(F)c2)nc2ccccc12	-1.45%	78.9%	
Nc1nc(-c2ccc(C(=O)O)cc2)nc2ccccc12	20.2%	-2.32%	
C#CCOc1ccc(-c2nc(N)c3ccccc3n2)cc1	74.4%	96%	
Ic1ccc(-c2nc(N3CCCC3)c3ccccc3n2)cc1	39.8%	94.9%	
Nc1nc(-c2ccc(Br)cc2)nc2c1ccc1ccccc12	80.6%	95.4%	IC50 (Cytochrome P450 1B1): 3.07 nM; IC50 (Cytochrome P450 1A1): 28.1 nM; IC50 (Cytochrome P450 1A2): 784 nM; selectivity ratio (CYP1A1 versus CYP1B1): 9.16; selectivity ratio (CYP1A2 versus CYP1B1): 256
Nc1nc(-c2cccc(I)c2)nc2ccccc12	66.4%	96.7%	
NCCNc1nc(-c2ccc(I)cc2)nc2ccccc12	-6.11%	39.5%	
Nc1nc(-c2ccccc2)nc2ccccc12	-13.5%	65.5%	
Cc1ccc(-c2nc(N)c3ccccc3n2)cc1	89.6%	97.8%	IC50 (Cytochrome P450 1B1): 1.69 nM; IC50 (Cytochrome P450 1A1): 263 nM; IC50 (Cytochrome P450 1A2): 5340 nM; selectivity ratio (CYP1A1 versus CYP1B1): 156; selectivity ratio (CYP1A2 versus CYP1B1): 3160
Nc1nc(-c2ccccc2)nc2c1ccc1ccccc12	6.15%	93.5%	

Compound	inhibition at 35 min, 0.01 µM (CYP1B1 [1])	inhibition at 35 min, 1 µM (CYP1B1 [2])	also measured
Nc1nc(-c2ccc(F)cc2)nc2c1ccc1ccccc12	11%	95%	
Cc1ccc(-c2nc(N)c3ccc4ccccc4c3n2)cc1	-13.1%	75.3%	
COc1cccc(-c2nc(N)c3ccc4ccccc4c3n2)c1	3.87%	94.8%	
COC(=O)c1ccc(-c2nc(N)c3ccccc3n2)cc1	15.9%	92.7%	
Nc1nc(-c2ccc(Cl)cc2)nc2c1ccc1ccccc12	69.4%	95.4%	
O=c1[nH]c(-c2ccc(Br)cc2)nc2ccccc12	69.5%	94.5%	
COc1ccc(-c2nc(N)c3ccccc3n2)cc1	84.1%	91.8%	IC50 (Cytochrome P450 1B1): 2.48 nM; IC50 (Cytochrome P450 1A1): 248 nM; IC50 (Cytochrome P450 1A2): 5840 nM; selectivity ratio (CYP1A1 versus CYP1B1): 99.9; selectivity ratio (CYP1A2 versus CYP1B1): 2360
Nc1nc(-c2cccc(Cl)c2)nc2ccccc12	25.8%	74.4%	
Ic1ccc(-c2nc(N3CCOCC3)c3ccccc3n2)cc1	51.8%	93.8%	
Nc1nc(-c2ccc(Br)nc2)nc2ccccc12	12.8%	73.4%	
Ic1ccc(-c2nc(Nc3ccccc3)c3ccccc3n2)cc1	7.25%	60.4%	
Nc1nc(-c2ccc(Cl)nc2)nc2ccccc12	6.96%	68%	
CCCNc1nc(-c2ccc(I)cc2)nc2ccccc12	67.8%	94.2%	
Nc1nc(-c2cccc(F)c2)nc2c1ccc1ccccc12	10.5%	94.5%	
COC(=O)c1cccc(-c2nc(N)c3ccccc3n2)c1	28.4%	1.98%	
Nc1nc(-c2cccc(Br)c2)nc2ccccc12	13.2%	55.4%	
COc1cccc(-c2nc(N)c3ccccc3n2)c1	10.1%	91.7%	
OCCNc1nc(-c2ccc(I)cc2)nc2ccccc12	68.5%	96.5%	
Nc1nc(-c2ccc(Oc3ccc(Cl)cc3Cl)cc2)nc2ccccc12	1.94%	27.6%	
Nc1nc(-c2ccc(I)cc2)nc2ccccc12			inhibition (A549 [6]): Active
CN(C)c1nc(-c2ccc(I)cc2)nc2ccccc12	65.4%	95.5%	
Nc1nc(-c2cccc(Cl)c2)nc2c1ccc1ccccc12	14%	94.2%	

Reference: ChEMBL document CHEMBL5518237, “Design of Novel 2-Phenylquinazolin-4-amines as Selective CYP1B1 Inhibitors for Overcoming Paclitaxel Resistance in A549 Cells” (J Med Chem, 2024)
